For one data set, the system named is IL-17A. Description: TH17 cytokine inhibition measured by ELISA (IL-17A). It is filed as cell-based. Conditions: 120 h; human TH17 cells, 5 days differentiation, ELISA of supernatants, 0.1% DMSO. The method, then:
(§1) Peripheral blood mononuclear cells (PBMCs) were sourced from freshly prepared leukocyte enriched plasma (buffy coat) from healthy volunteers from which PBMCs were isolated by density gradient centrifugation using Ficoll-Paque™ PLUS (GE Healthcare). Naïve CD4+ T cells were isolated using the Naïve CD4+ T cell Isolation Kit II (Miltenyi Biotec) as per manufacturer's instructions. CD4+ T cells were plated at 5×10^4 cells/well in 96 well plates pre-coated with immobilized human (h)-αCD3 antibody (eBioscience) then differentiated to TH17 cells using h-αCD28, h-αIFN-γ, h-αIL-4, h-IL-6, h-IL-23, h-IL-1β, h-TGF-β1 (eBioscience) and maintained in a cell culture incubator at 37° C. with 5% CO2 in TexMACS Medium (Miltenyi Biotec) supplemented with 1% Penicillin/Streptomycin (Lonza) over 5 days.
(§2) Human CD4+ T cells were differentiated to TH17 cells as described in the presence or absence of various concentrations of compounds in a final concentration of 0.1% DMSO in TexMACS medium. Supernatants were collected and stored at −20° C. until they were to be assayed for IL-17A, IL-17F, IL-17AF, IL-21 and/or IL-22 levels as determined by Ready-Set-Go ELISA kits (eBioscience) as per manufacturer's instructions. Endpoint absorbance was read at 450 nm and 570 nm according to manufacturer's instructions (eBioscience) using a microplate reader (Perkin Elmer). The percentage of cytokine inhibition was calculated with reference to DMSO treated cells and the IC50s were determined by GraphPad Prism software and presented in the table below.
(In an ELISA, binding on a coated surface is turned into a signal by an enzyme label.)

The subject of the next data set is IL-21. The data set can be described thus: TH17 cytokine inhibition measured by ELISA (IL-21). It is filed as cell-based. Particulars: 120 h; human TH17 cells, 5 days differentiation, ELISA of supernatants, 0.1% DMSO. The method, then:
as §1, §2

Another data set concerns IL-22. Description: TH17 cytokine inhibition measured by ELISA (IL-22). Conditions: 120 h; human TH17 cells, 5 days differentiation, ELISA of supernatants, 0.1% DMSO. It is filed as cell-based. On the procedure: as §1, §2
Data set [1] concerns the target T1, RORα LBD (Homo sapiens, UniProt P35398).
T1 construct: purified GST-tagged (i) RORγ LBD or (ii) RORα LBD; purchased Life Technologies
T1 sequence (P35398 272-510 limits assumed): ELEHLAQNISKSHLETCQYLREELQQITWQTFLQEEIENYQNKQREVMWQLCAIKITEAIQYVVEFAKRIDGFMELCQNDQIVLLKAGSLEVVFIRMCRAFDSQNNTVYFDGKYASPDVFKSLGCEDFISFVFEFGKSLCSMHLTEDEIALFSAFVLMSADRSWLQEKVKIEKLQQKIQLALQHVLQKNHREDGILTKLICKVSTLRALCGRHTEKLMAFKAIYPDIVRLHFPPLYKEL
The data set can be described thus: TR-FRET NCoR1-D2 co-repressor recruitment to RORα LBD. The data set is classed as biochemical. An excerpt: (§3) The Time-Resolved Fluorescence Resonance Energy Transfer (TR-FRET) assay kit (Life Technologies) was used to measure compound efficacy to disrupt or enhance ligand-mediated interaction of the co-activator and co-repressor peptides with the purified GST-tagged (i) RORγ LBD or (ii) RORα LBD. The RORγ LBD and RORα LBD each have a basal level of interaction with the co-activator D22 or co-repressor NCoR1-D2 in the absence of ligand, thus it is possible to identify compounds that inhibit or induce RORγ and/or RORα co-activator/co-repressor interactions, thus determining RORα, RORγ, or RORα/RORγ compound selectivity. The assay was performed as per manufacturer's instructions and TR-FRET was assessed 2 and 20 hours post-assay initiation. Compounds were identified to (i) have no impact on either co-activator displacement or […] from the assessed LBD (ii) promote co-activator displacement from the assessed LBD (iii) promote co-repressor recruitment to the assessed LBD or (iv) concurrently promote co-activator displacement from the assessed LBD and co-repressor recruitment to the assessed LBD.
(TR-FRET usually uses a lanthanide donor and a delayed reading to cut background.)

Data set [2] addresses T1, RORα LBD. Description: TR-FRET D22 co-activator displacement from RORα LBD. It is filed as biochemical.
Excerpt: as §3

The target in data set [3] is T2, RORγ LBD (Homo sapiens, UniProt P51449).
T2 sequence (P51449 269-508 limits assumed): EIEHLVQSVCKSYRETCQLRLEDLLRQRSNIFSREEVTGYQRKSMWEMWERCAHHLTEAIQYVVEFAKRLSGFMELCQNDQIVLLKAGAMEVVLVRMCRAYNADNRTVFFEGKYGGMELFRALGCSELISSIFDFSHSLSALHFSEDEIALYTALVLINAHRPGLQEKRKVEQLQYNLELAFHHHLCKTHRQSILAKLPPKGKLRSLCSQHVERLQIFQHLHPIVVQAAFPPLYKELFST
Description: TR-FRET D22 co-activator displacement from RORγ LBD. It is filed as biochemical. On the set-up: purified GST-tagged (i) RORγ LBD or (ii) RORα LBD; purchased Life Technologies.
Excerpt: as §3

Data set [4] deals with T2, RORγ LBD. Description: TR-FRET NCoR1-D2 co-repressor recruitment to RORγ LBD. It is filed as biochemical. On the set-up: purified GST-tagged (i) RORγ LBD or (ii) RORα LBD; purchased Life Technologies.
Excerpt: as §3

A short description of data set [5]: TH17 cell viability (Prestoblue). The data set is classed as cell-based. Conditions: human; 1 μM compound, after 5 days, percentage of DMSO treated cells. On the procedure: as §1
Cells were assayed for viability in the presence or absence of 1 μM compound using Prestoblue® Cell Viability Reagent (Life Technologies) as per manufacturer's instructions after 30 minutes incubation of TH17 cells with reagent. Absorbance was measured at 570 nm and 600 nm using a microplate reader (Perkin Elmer) and data were analyzed as per manufacturer's instructions. Cell viability was determined after 5 days and expressed as a percentage of DMSO treated cells.

Another data set concerns TH17 cells. The data set can be described thus: TH17 cellular proliferation (Prestoblue). It is filed as cell-based. Conditions: Homo sapiens, 120 h; 3 μM compound, after 5 day TH17 differentiation, relative to DMSO treated TH17 cells; read-out: % change in TH17 cell number. On the procedure: as §1
Cellular proliferation was assessed in the presence or absence of 3 μM compound using Prestoblue® Cell Viability Reagent (Life Technologies) as per manufacturer's instructions using absorbance as the output measured by a microplate reader (Perkin Elmer) after 30 minutes of incubation. A standard curve developed by plotting varying cell numbers versus absorbance was used to assess differences in cellular proliferation between compound treated or untreated cells after the 5 day TH17 differentiation period.

Another data set relates to IL-17AF. Description: TH17 cytokine inhibition measured by ELISA (IL-17AF). The data set is classed as cell-based. Particulars: 120 h; human TH17 cells, 5 days differentiation, ELISA of supernatants, 0.1% DMSO. The method, then:
as §1, §2

The test system of the next data set is IL-17F. Description: TH17 cytokine inhibition measured by ELISA (IL-17F). It is filed as cell-based. Particulars: 120 h; human TH17 cells, 5 days differentiation, ELISA of supernatants, 0.1% DMSO. The method, then:
as §1, §2

Setting [6] is: TR-FRET assessed 2 hr post-assay initiation, read-out: RORα EC50 NCoR1-D2 co-repressor recruitment, 2 hr.
The mark [7] stands for this setting: TR-FRET assessed 20 hr post-assay initiation, read-out: RORα EC50 NCoR1-D2 co-repressor recruitment, 20 hr.
Setting [8] is: TR-FRET assessed 2 hr post-assay initiation, read-out: RORα EC50 D22 co-activator displacement, 2 hr.
[9] abbreviates: TR-FRET assessed 20 hr post-assay initiation, read-out: RORα EC50 D22 co-activator displacement, 20 hr.
Where [10] appears, read: TR-FRET assessed 2 hr post-assay initiation, read-out: RORγ EC50 D22 co-activator displacement, 2 hr.
Setting [11] is: TR-FRET assessed 20 hr post-assay initiation, read-out: RORγ EC50 D22 co-activator displacement, 20 hr.
The mark [12] stands for this setting: TR-FRET assessed 2 hr post-assay initiation, read-out: RORγ EC50 NCoR1-D2 co-repressor recruitment, 2 hr.
Setting [13] is: TR-FRET assessed 20 hr post-assay initiation, read-out: RORγ EC50 NCoR1-D2 co-repressor recruitment, 20 hr.

For `Cc1cc(-c2ccc3c(c2)CCN3Cc2ccc(C(O)(C(F)(F)F)C(F)(F)F)cc2)[nH]n1` [Example 7, 1,1,1,3,3,3-hexafluoro-2-(4-((5-(3-methyl-1H-pyrazol-5-yl)indolin-1-yl)methyl)phenyl)propan-2-ol], the IC50 in the data set with IL-17A, in the data set on IL-21, in the data set with IL-22, in the data set with IL-17AF and with IL-17F was < 10 µM throughout. The EC50 (usually the concentration at which the effect is half-maximal) on RORα LBD [1] (setting [6]) was > 30 µM; at RORα LBD [1] (setting [7]), < 30 µM; at RORα LBD [2] (setting [8]), < 30 µM; at RORα LBD [2] (setting [9]) it was < 30 µM; on RORγ LBD [3] (setting [10]), < 30 µM; on RORγ LBD [3] (setting [11]) it was < 30 µM. The EC50 at RORγ LBD [4] (setting [12]) and on RORγ LBD [4] (setting [13]) was < 30 µM in each case. For the same molecule, in data set [5], the viability (usually a per cent measure of how many cells are alive, often set against a control) at 5 days, 1 µM is > 80%. In addition, the inhibition at 3 µM with TH17 cells is > 50%.

Turning to `OC(c1ccc(CN2CCc3cc(-c4cn[nH]c4)ccc32)cc1)(C(F)(F)F)C(F)(F)F` [Example 8, 2-(4-((5-(1H-pyrazol-4-yl)indolin-1-yl)methyl)phenyl)-1,1,1,3,3,3-hexafluoropropan-2-ol], the melting point (commonly the temperature, or range, at which the solid turns liquid) lay within 191 to 195 °C. Further, the half-inhibitory concentration (IC50) – broadly, the midpoint of a concentration-inhibition curve – with IL-17A was < 10 µM. Moreover, the IC50 in the data set with IL-21 is < 10 µM. The IC50 with IL-22 is < 10 µM. Further, the EC50 at RORα LBD [1] (setting [6]) is < 30 µM. Besides, the EC50 at RORα LBD [1] (setting [7]) is > 30 µM. Moreover, the EC50 at RORα LBD [2] (setting [8]) was > 30 µM. At RORα LBD [2] (setting [9]), the EC50 is < 30 µM. Also, on RORγ LBD [3] (setting [10]), the EC50 was < 30 µM. The EC50 on RORγ LBD [3] (setting [11]) was < 30 µM. For the same molecule, on RORγ LBD [4] (setting [12]), the half-maximal effective concentration (EC50) was < 30 µM. In addition, the EC50 at RORγ LBD [4] (setting [13]) is > 30 µM. The viability at 5 days, 1 µM in data set [5] was > 80%. Besides, in the data set on TH17 cells, the inhibition at 3 µM is > 50%. The IC50 in the data set with IL-17AF was < 10 µM. Besides, the IC50 with IL-17F is < 10 µM.

On to `Cc1nnc(-c2ccc3c(c2)CCN3Cc2ccc(C(O)(C(F)(F)F)C(F)(F)F)cc2)o1` [Example 9, 1,1,1,3,3,3-hexafluoro-2-(4-((5-(5-methyl-1,3,4-oxadiazol-2-yl)indolin-1-yl)methyl)phenyl)propan-2-ol], for which the IC50 is < 10 µM with IL-17A; < 10 µM in the data set on IL-21; < 10 µM with IL-22; > 10 µM in the data set with IL-17AF; < 10 µM with IL-17F. Further, the EC50 was > 30 µM at RORα LBD [1] (setting [6]); < 30 µM on RORα LBD [1] (setting [7]); > 30 µM at RORα LBD [2] (setting [8]); < 30 µM at RORα LBD [2] (setting [9]); > 30 µM on RORγ LBD [3] (setting [10]); > 30 µM at RORγ LBD [3] (setting [11]). The values for the EC50 at RORγ LBD [4] (setting [12]) and on RORγ LBD [4] (setting [13]) were < 30 µM and > 30 µM, respectively. In addition, in data set [5], the viability at 5 days, 1 µM was > 80%. Moreover, the inhibition at 3 µM in the data set on TH17 cells is > 50%.

Values taken from patent US9447069B2, “ROR modulators and their uses” (INNOV17 LLC, priority 2012, dated 2016).
